Measured values published in patent publication US20040063661A1, “Treatment of statin side effects” (priority 2000, published 2004).
“And” between values parts separate entries of the source, which are not always exact repeats. Equal values may be shown once. Marks after values point to notes of the source that are not given here.

Key:
Type in all cases: in vivo, human
alanine aminotransferase = test: Pilot clinical study Q10: blood alanine aminotransferase concentration (measure of liver damage)
Protocol: (§1) Commencing at WK(0) and continuing through the study the patients were asked to take a daily dose of 300 mg of Coenzyme Q10 (Q10), which was administered as […] sof gel capsules (commercially available from R. P. Scherer), morning and evening.

[1] = system: statin induced muscle pain; test: Pilot clinical study Q10: McGill Pain Questionnaire (PRI, PPI); conditions: for PRI (Pain Rating Index), first score / PRI (Pain Rating Index), second score: patients on statin therapy; for PRI (Pain Rating Index), first score / PRI (Pain Rating Index), second score / PPI (Present Pain Intensity): one line per patient
From the text: (§2) Table 2 outlines data for four patients (numbered #1-#4) undergoing statin therapy for treatment of hypercholesterolemia and who had reported suffering from varying levels of muscular pain and fatigue. This study is ongoing, but the results below follow the study with these four patients from week minus1 (WK(-1)) to week plus 4 (WK(+4)). Patients were either contacted or attended the clinic at weeks -1, 0, +1, +2 and +4. At the clinic on the first week (WK(-1)) details of the patients' statin medication were recorded and daily doses were noted. Patients were also scored for pain using the McGill Pain Questionnaire (Melzack, R., 1975 “The McGill Pain Questionnaire: Major Properties and Scoring Methods”. Pain 1:277-299, the disclosure of which is included herein in its entirety by way of reference) scales for Pain Rating Index (PRI) and Present Pain Intensity (PPI). In the PRI index, which comprises two scores, higher scores indicate increasing levels of pain. In the PPI index present pain is given a score of 0 to 5, where 0 represents no pain and 5 represents excruciating pain. Patients were also scored at WK(-1) for fatigue using the Fatigue Impact Scale (Fisk, J. D. et al, 1994, “Measuring the functional impact of fatigue: Initial Validation of the Fatigue Impact Scale”, Clinical Infectious Disease, 18 (Suppl 1):[…]-83, the disclosure of which is included herein in its entirety by way of reference). Questionnaires to determine PRI, PPI and FIS scores were conducted thereafter at weeks +1, +2 and +4. At weeks +1 and +2 the patients were contacted by telephone and were asked to mail their self assessment questionnaires to the clinic. Commencing at WK(0) and continuing through the study the patients were asked to take a daily dose of 300 mg of Coenzyme Q10 (Q10), which was administered as […] sof gel capsules (commercially available from R. P. Scherer), morning and evening.

[2] = system: serum cholesterol, HDL-cholesterol or LDL-cholesterol and triglyceride levels; test: Pilot clinical study Q10: serum lipids levels under statin therapy; conditions: patients #1-#4; 300 mg Q10 daily; WK(0) vs WK(+4)
Protocol: as §1

muscle pain = test: Case report: Coenzyme Q10 in a patient with unexplained muscle pain and viral infections (Example 1)
From the text: The patient had suffered for a number of years from unexplained muscle pain which started in the legs and gradually spread to other skeletal muscles. During the worst of the symptoms, the patient was unable to raise their arms above their head and was unable to drive a car. Walking was also difficult. […] The patient was eventually diagnosed as suffering from a number of viral infections: cytomegalovirus (CMV), Epstein-Barr virus (EBV) and hepatitis A. The patient was started on a regimen of 150 mg per day of Coenzyme Q10. […] The improvement was reported as permanent provided that the patient kept taking Q10.

chronic fatigue syndrome = test: Case report: self assessed well being, day to day tasks and muscle pain in a chronic fatigue syndrome patient on Q10 (Example 2); conditions: for Feeling of Well Being / Absence of Muscle Pain / Heavy Work (1 hour) / Light Work/Walking / Sedentary Work / Work: teacher / Wellness Score (out of 60): Q10 2×50 mg per day; for Feeling of Well Being: self rated 0-10 (10 = best); for Absence of Muscle Pain: self rated 0-10 (10 = complete absence of pain); for Wellness Score (out of 60): sum of the six self ratings
Protocol: The patient had suffered for a number of years from chronic fatigue syndrome. The condition was severe enough such that they were unable to pursue their teaching career and day to day tasks were generally performed with a general sense of fatigue and muscle pain. Muscle pain was generally controlled with over the counter (ie. non-prescription) analgesics containing 500 mg paracetamol and 8 mg codeine phosphate, 2-4 tablets per day. Table 1 provides a summary of the patient's self assessed levels of general sense of well being, ability to perform day to day tasks and level of (or relative absence of) muscle pain during a dosing regimen of 2×50 mg per day of Q10(50 mg taken each at breakfast and dinner). Levels were rated by the patient on a scale of 0-10, with 0 representing severe incapacity or pain and 10 representing the complete absence of pain or fatigue/excellent performance. FIG. 1 depicts the self assessed (absence of) pain levels for the patient, over a period of 30 days, on a scale of […], where 0 is severe pain and 10 relates to an absence of pain (wellness). On day 1 the patient commenced taking 100 mg of Q10 per day until day 10 when the dosage was increased to 200 mg per day

statin induced fatigue = test: Pilot clinical study Q10: Fatigue Impact Scale (FIS); conditions: for FIS (Fatigue Impact Scale): one line per patient
From the text: as §2

creatine kinase = test: Pilot clinical study Q10: blood creatine kinase concentration (measure of muscle trauma)
Protocol: as §1

[3] = Pilot clinical study Q10: blood Q10 level (patient compliance); conditions: one line per patient
Protocol: as §1

[4] = 300 mg Q10 daily to WK(+4), a few patients
[5] = WK(+1), 300 mg Q10 daily from WK(0)
[6] = WK(+2), 300 mg Q10 daily from WK(0)
[7] = WK(+4), 300 mg Q10 daily from WK(0)
[8] = 150 mg per day of Coenzyme Q10, within several days
[9] = Day 1, self rated 0-10 (10 = excellent performance)
[10] = Day 2, self rated 0-10 (10 = excellent performance)
[11] = Day 3, self rated 0-10 (10 = excellent performance)
[12] = Day 4, self rated 0-10 (10 = excellent performance)
[13] = Day 5, self rated 0-10 (10 = excellent performance)
[14] = Week 2, self rated 0-10 (10 = excellent performance)
[15] = Week 12, self rated 0-10 (10 = excellent performance)

Q10 (blood level) ([3]; WK(0), baseline before Q10): 0.59 µg/mL and 0.46 µg/mL and 1.39 µg/mL
Compound: COC1=C(OC)C(=O)C(C/C=C(\C)CC/C=C(\C)CC/C=C(\C)CC/C=C(\C)CC/C=C(\C)CC/C=C(\C)CC/C=C(\C)CC/C=C(\C)CC/C=C(\C)CCC=C(C)C)=C(C)C1=O [Q10, Coenzyme Q10]
ALT (alanine aminotransferase concentration) (alanine aminotransferase; WK(0), baseline before Q10, normal range 0-40, one line per patient): 31 units/L and 14 units/L and 33 units/L
ALT (alanine aminotransferase concentration) (alanine aminotransferase; WK(+4), 300 mg Q10 daily from WK(0), normal range 0-40, one line per patient): 25 units/L and 11 units/L and 19 units/L and 35 units/L
change in PRI scores (overall statement) [1, 4]: Marginal decreases
PRI (Pain Rating Index), first score [1, 5]: 22 and 0 and 48 and 19
PRI (Pain Rating Index), second score [1, 5]: 10 and 0 and 21 and 7
PPI (Present Pain Intensity) ([1]; WK(+1), 300 mg Q10 daily from WK(0), score 0 to 5): 2 and 0 and 3 and 1
PRI (Pain Rating Index), first score [1, 6]: 25 and 9 and 54 and 10
PRI (Pain Rating Index), second score [1, 6]: 11 and 6 (2×) and 23
PPI (Present Pain Intensity) ([1]; WK(+2), 300 mg Q10 daily from WK(0), score 0 to 5): 2 (3×) and 1
PRI (Pain Rating Index), first score [1, 7]: 8 and 4 and 46 and 9
PRI (Pain Rating Index), second score [1, 7]: 4 and 1 and 20 and 5
PPI (Present Pain Intensity) ([1]; WK(+4), 300 mg Q10 daily from WK(0), score 0 to 5): 2 (3×) and 1
PRI (Pain Rating Index), first score ([1]; WK(−1), baseline before Q10): 15 and 10 and 69 and 12
PRI (Pain Rating Index), second score ([1]; WK(−1), baseline before Q10): 5 (2×) and 3 and 30
PPI (Present Pain Intensity) ([1]; WK(−1), baseline before Q10, score 0 to 5 (5 = excruciating pain)): 2
effect on statin therapy with respect to serum cholesterol, HDL-cholesterol or LDL-cholesterol and triglyceride levels [2]: did not significantly affect statin therapy
general sense of well being (patient report) (muscle pain; [8]): general sense of well being has improved
muscle pain (patient report) (muscle pain; [8]): muscle pain had subsided noticeably
pain after the patient recommenced the Q10 treatment (muscle pain; treatment recommenced): the pain diminished within a short period
muscle pain after the patient stopped taking the Q10 (muscle pain; treatment stopped on one occasion): the muscle pain returned
self assessed (absence of) pain levels, FIG. 1 (chronic fatigue syndrome; 30 day period, 100 mg of Q10 per day from day 1, 200 mg per day from day 10): increasing absence of muscle pain
Feeling of Well Being (chronic fatigue syndrome; Day 1): 4
Absence of Muscle Pain (chronic fatigue syndrome; Day 1, patient required 2x analgesic tablets): 3*
Heavy Work (1 hour) (chronic fatigue syndrome; [9]): 0
Light Work/Walking (chronic fatigue syndrome; [9]): 4
Sedentary Work (chronic fatigue syndrome; [9]): 3
Work: teacher (chronic fatigue syndrome; [9]): 0
Wellness Score (out of 60) (chronic fatigue syndrome; Day 1): 14
Feeling of Well Being (chronic fatigue syndrome; Day 2): 4
Absence of Muscle Pain (chronic fatigue syndrome; Day 2, patient required 2 × 2 (4) analgesic tablets): 3**
Heavy Work (1 hour) (chronic fatigue syndrome; [10]): 0
Light Work/Walking (chronic fatigue syndrome; [10]): 4
Sedentary Work (chronic fatigue syndrome; [10]): 3
Work: teacher (chronic fatigue syndrome; [10]): 0
Wellness Score (out of 60) (chronic fatigue syndrome; Day 2): 14
Feeling of Well Being (chronic fatigue syndrome; Day 3): 5
Absence of Muscle Pain (chronic fatigue syndrome; Day 3): 7
Light Work/Walking (chronic fatigue syndrome; [11]): 6
Sedentary Work (chronic fatigue syndrome; [11]): 4
Work: teacher (chronic fatigue syndrome; [11]): 0
Heavy Work (1 hour) (chronic fatigue syndrome; Day 3, self rated 0-10, patient performed only ½ hour heavy work): 3***
Wellness Score (out of 60) (chronic fatigue syndrome; Day 3): 25
Feeling of Well Being (chronic fatigue syndrome; Day 4): 6
Absence of Muscle Pain (chronic fatigue syndrome; Day 4): 7
Light Work/Walking (chronic fatigue syndrome; [12]): 6
Sedentary Work (chronic fatigue syndrome; [12]): 5
Work: teacher (chronic fatigue syndrome; [12]): 0
Heavy Work (1 hour) (chronic fatigue syndrome; Day 4, self rated 0-10, patient performed only ½ hour heavy work): 3***
Wellness Score (out of 60) (chronic fatigue syndrome; Day 4): 27
Feeling of Well Being (chronic fatigue syndrome; Day 5): 7
Absence of Muscle Pain (chronic fatigue syndrome; Day 5): 7
Light Work/Walking (chronic fatigue syndrome; [13]): 7
Sedentary Work (chronic fatigue syndrome; [13]): 6
Work: teacher (chronic fatigue syndrome; [13]): 0
Heavy Work (1 hour) (chronic fatigue syndrome; Day 5, self rated 0-10, patient performed only ½ hour heavy work): 3***
Wellness Score (out of 60) (chronic fatigue syndrome; Day 5): 30
Feeling of Well Being (chronic fatigue syndrome; Week 2): 7
Absence of Muscle Pain (chronic fatigue syndrome; Week 2): 7
Heavy Work (1 hour) (chronic fatigue syndrome; [14]): 5
Light Work/Walking (chronic fatigue syndrome; [14]): 7
Sedentary Work (chronic fatigue syndrome; [14]): 7
Work: teacher (chronic fatigue syndrome; [14]): 3
Wellness Score (out of 60) (chronic fatigue syndrome; Week 2): 36
Feeling of Well Being (chronic fatigue syndrome; Week 12): 9
Absence of Muscle Pain (chronic fatigue syndrome; Week 12): 9
Heavy Work (1 hour) (chronic fatigue syndrome; [15]): 8
Light Work/Walking (chronic fatigue syndrome; [15]): 9
Sedentary Work (chronic fatigue syndrome; [15]): 9
Work: teacher (chronic fatigue syndrome; [15]): 8
Wellness Score (out of 60) (chronic fatigue syndrome; Week 12): 52
change in FIS scores (overall statement) (statin induced fatigue; [4]): Marginal decreases
FIS (Fatigue Impact Scale) (statin induced fatigue; [5]): 42 and 19 and 91 and 18
FIS (Fatigue Impact Scale) (statin induced fatigue; [6]): 47 and 44 and 90 and 16
FIS (Fatigue Impact Scale) (statin induced fatigue; [7]): 43 and 6 and 90 and 16
FIS (Fatigue Impact Scale) (statin induced fatigue; WK(−1), baseline before Q10, patients on statin therapy): 48 and 39 and 104 and 15
CK (creatine kinase concentration) (creatine kinase; WK(0), baseline before Q10, normal range 0-200, one line per patient): 175 units/L and 69 units/L and 39 units/L and 160 units/L
CK (creatine kinase concentration) (creatine kinase; WK(+4), 300 mg Q10 daily from WK(0), normal range 0-200, one line per patient): 127 units/L and 78 units/L and 32 units/L and 148 units/L
Q10 (blood level) [3, 7]: 2.42 µg/mL and 2.49 µg/mL and 1.92 µg/mL and 2.22 µg/mL
